Data on six compounds can be found in patent publication US4069318A, “N^2 -Alkoxynaphthalenesulfonyl-L-argininamides and the pharmaceutically acceptable salts thereof” (Mitsubishi Chemical Industries Ltd., priority 1974, dated 1978).

Bounds are passed on as bounds.

The LD50 is the dose at which mortality reaches 50%. Low readings indicate a more toxic substance, high ones a less toxic substance.

The target of one series is T1, thrombin (Bos taurus, UniProt P00735).
T1 construct: bovine fibrinogen as substrate
As to the kind of experiment: fibrinogen coagulation time (thrombin-induced). It counts as biochemical. The note with it: bovine fibrinogen, thrombin 5 units/ml, borate saline buffer pH 7.4, 25° C; control 50-55 seconds; read-out: Concentration required to prolong the coagulation time by a factor of two. How it is done: Immediately after mixing, the reaction mixture was transferred from the ice bath to a bath maintained at 25° C. Coagulation times were taken as the period between the time of transference to the 25° C bath and the time of the first appearance of fibrin threads.
Regarding `COc1cccc2c(S(=O)(=O)N[C@@H](CCCNC(=N)N)C(=O)N(CC(=O)O)Cc3ccccc3)cccc12` [Sample 18, N^2-(5-methoxy-1-naphthalenesulfonyl)-L-arginyl-N-benzylglycine], the IC (2-fold clotting time) came out at 2 µM.

System in the next series: not listed separately
As to the kind of experiment: acute toxicity (LD50) by intraperitoneal administration in mice. As to conditions: mouse, in vivo, ip, mice (male, 20 g). The text has this: On the other hand, LD50 values for N^2 -dansyl-N-butyl-L-argininamide and N^2 -dansyl-N-methyl-N-butyl-L-argininamide are 75 and 70 milligrams per kilogram, respectively.
`CCCCNC(=O)[C@H](CCCNC(=N)N)NS(=O)(=O)c1cccc2c(N(C)C)cccc12` [N^2 -dansyl-N-butyl-L-argininamide, reference compound] returned a median lethal dose (LD50) of 75 mg/kg.

`CCCCN(C)C(=O)[C@H](CCCNC(=N)N)NS(=O)(=O)c1cccc2c(N(C)C)cccc12` [N^2 -dansyl-N-methyl-N-butyl-L-argininamide, reference compound] came in with a median lethal dose (LD50) of 70 mg/kg.

As to `COc1cc2ccc(S(=O)(=O)N[C@@H](CCCNC(=N)N)C(=O)N(CC(=O)O)Cc3ccccc3)cc2cc1OC` [Sample 2, N^2-(6,7-dimethoxy-2-naphthalenesulfonyl)-L-arginyl-N-benzylglycine], the 50% lethal dose (LD50) was greater than 1000 mg/kg.

`COc1cc2ccc(S(=O)(=O)N[C@@H](CCCNC(=N)N)C(=O)N(CCc3ccccc3)CC(=O)O)cc2cc1OC` [Sample 6, N^2-(6,7-dimethoxy-2-naphthalenesulfonyl)-L-arginyl-N-phenethylglycine] displayed a median lethal dose (LD50) greater than 1500 mg/kg.

In turn, `COc1ccc2cc(S(=O)(=O)N[C@@H](CCCNC(=N)N)C(=O)N(CC(=O)O)Cc3ccccc3)cc(OC)c2c1` [Sample 10, N^2-(4,6-dimethoxy-2-naphthalenesulfonyl)-L-arginyl-N-benzylglycine] returned an LD50 greater than 1000 mg/kg.

On to `COc1cccc2c(S(=O)(=O)N[C@@H](CCCNC(=N)N)C(=O)N(CC(=O)O)Cc3ccccc3)cccc12` [Sample 18, N^2-(5-methoxy-1-naphthalenesulfonyl)-L-arginyl-N-benzylglycine], for which the LD50 was greater than 1000 mg/kg.
